We go through 1 molecule from US20210038579A1, “Treatment Of Patients With Classic Fabry Disease” (Amicus Therapeutics, Inc., priority 2018, published 2021).

Residue numbers refer to the chain shown, from its start.

What all share (experiment): HEK assay: α-Gal A activity in HEK-293 cell lysate with migalastat
Common to all, as to assay type: cell-based

Assay [1] concerns the target T1, α-Gal A mutant form p.Pro259Arg (c.776 C > G) (Homo sapiens, UniProt P06280, P259R).
T1 construct: expressed in transfected cells; host or cells: HEK-293
T1 sequence (P06280 32-429 P259R): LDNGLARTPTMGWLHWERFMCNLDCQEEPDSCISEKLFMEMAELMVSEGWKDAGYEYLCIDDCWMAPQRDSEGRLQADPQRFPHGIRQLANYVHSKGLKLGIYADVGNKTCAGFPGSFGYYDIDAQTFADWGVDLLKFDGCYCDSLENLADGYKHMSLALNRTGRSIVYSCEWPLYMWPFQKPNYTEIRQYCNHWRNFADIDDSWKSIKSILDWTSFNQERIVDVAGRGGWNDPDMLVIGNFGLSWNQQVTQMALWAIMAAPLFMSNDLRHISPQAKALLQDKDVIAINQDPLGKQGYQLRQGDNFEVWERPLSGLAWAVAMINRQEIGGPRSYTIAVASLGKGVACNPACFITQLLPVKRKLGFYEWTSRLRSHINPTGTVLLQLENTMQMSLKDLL
The procedure, abridged:
(§1)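 Mutant α-Gal A forms from cDNA constructs were transiently expressed in HEK-293 cells, then incubated with or without migalastat (17 nM to 1 mM) for 4 to 5 days. Enzyme levels in cell lysates were measured with the fluorogenic substrate 4-MU-α-Gal or by western blot.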

Assay [2] addresses T2, α-Gal A mutant form p.Gly325Arg (c.973G > C) (Homo sapiens, UniProt P06280, G325R).
T2 construct: expressed in transfected cells; host or cells: HEK-293
T2 sequence (P06280 32-429 G325R): T1 sequence (P06280 32-429 P259R) with R228P, G294R
The procedure, abridged:
as §1

In assay [3] the target is T3, α-Gal A mutant form p.Met284Thr (c.851 T > C) (Homo sapiens, UniProt P06280, M284T).
T3 construct: expressed in transfected cells; host or cells: HEK-293
T3 sequence (P06280 32-429 M284T): T1 sequence (P06280 32-429 P259R) with R228P, M253T
The procedure, abridged: as §1

Assay [4] deals with T4, α-Gal A mutant form p.Met187Ile (c.561 G > A) (Homo sapiens, UniProt P06280, M187I).
T4 construct: expressed in transfected cells; host or cells: HEK-293
T4 sequence (P06280 32-429 M187I): T1 sequence (P06280 32-429 P259R) with M156I, R228P
The procedure, abridged: as §1

In assay [5] the target is T5, α-Gal A mutant form p.Cys174Arg (c.520 T > C) (Homo sapiens, UniProt P06280, C174R).
T5 construct: expressed in transfected cells; host or cells: HEK-293
T5 sequence (P06280 32-429 C174R): T1 sequence (P06280 32-429 P259R) with C143R, R228P
The procedure, abridged: as §1

The mark [6] stands for this setting: +10 μM migalastat, HEK-293 cell lysate, mean ± SEM, n = 20.
The mark [7] stands for this setting: HEK293, 10 μM migalastat minus baseline, read-out: Absolute increase at 10 μM (% WT).

Turning to `OC[C@H]1NC[C@H](O)[C@@H](O)[C@H]1O` [migalastat], the “α-Gal A activity at 10 μM (fold over baseline)” value was found to be 2.64 fold over baseline in assay [1] (10 μM migalastat); 10.17 fold over baseline in assay [2] (10 μM migalastat); 8.33 fold over baseline in assay [3] (10 μM migalastat); 6.10 fold over baseline in assay [4] (10 μM migalastat); 3.53 fold over baseline in assay [5] (10 μM migalastat). Moreover, the “+Migalastat α-Gal A activity” value in assay [1] (setting [6]) stood at 17645 ± 515 nmol/mg/h; in assay [2] (setting [6]) it was 9244 ± 417 nmol/mg/h; in assay [3] (setting [6]) it was 5050 ± 268 nmol/mg/h; in assay [4] (setting [6]), 10824 ± 555 nmol/mg/h; in assay [5] (setting [6]) it was 16505 ± 393 nmol/mg/h. Further, the “+Migalastat α-Gal A activity % WT” value in assay [1] (setting [6]) worked out at 60.3 ± 3.8 % WT; in assay [2] (setting [6]), 26.6 ± 1.4 % WT; in assay [3] (setting [6]), 14.3 ± 0.6 % WT; in assay [4] (setting [6]) it was 30.7 ± 1.1 % WT; in assay [5] (setting [6]) it was 51.6 ± 2.0 % WT. Moreover, the activation at 10 µM stood at 37% in assay [1] (setting [7]); 24% in assay [2] (setting [7]); 12.6% in assay [3] (setting [7]); 25.6% in assay [4] (setting [7]); 37.4% in assay [5] (setting [7]).
